Measured values reported in US20230172206A1 (BASF SE, priority 2020, published 2023).

What was measured:
[1] = test system: Phakopsora pachyrhizi (F129L); assay: Protective control of soybean rust on soybeans (PHAKPA P2); format: in vivo; details: for % PHAKPA (F129L) Disease level P2 at 4 ppm: protective P2, 4 ppm; for % PHAKPA (F129L) Disease level P2 at 16 ppm: protective P2, 16 ppm
[2] = test system: Phakopsora pachyrhizi (F129L); assay: Protective control of soybean rust on soybeans (PHAKPA P6); format: in vivo; details: for % PHAKPA (F129L) Disease level P6 at 4 ppm: protective P6, 4 ppm; for % PHAKPA (F129L) Disease level P6 at 16 ppm: protective P6, 16 ppm

SMILES	% PHAKPA (F129L) Disease level P2 at 4 ppm ([1]; F129L isolate)	% PHAKPA (F129L) Disease level P2 at 16 ppm ([1]; F129L isolate)	% PHAKPA (F129L) Disease level P6 at 4 ppm ([2]; F129L isolate)	% PHAKPA (F129L) Disease level P6 at 16 ppm ([2]; F129L isolate)	% PHAKPA (F129L) Disease level P2 at 4 ppm ([1]; soybean rust F129L isolate)	% PHAKPA (F129L) Disease level P2 at 16 ppm ([1]; soybean rust F129L isolate)	% PHAKPA (F129L) Disease level P6 at 4 ppm ([2]; soybean rust F129L isolate)	% PHAKPA (F129L) Disease level P6 at 16 ppm ([2]; soybean rust F129L isolate)	PHAKPA (F129L) Disease level (%) P2 at 16 ppm ([1]; protective, inoculation 2 days after spraying, 16 ppm, % diseased leaf area)	PHAKPA (F129L) Disease level (%) P6 at 16 ppm ([2]; protective, inoculation six days after spraying, 16 ppm, % diseased leaf area)
CNC(=O)/C(=N/OC)c1cccc(C)c1CO/N=C(\C)c1ccc(F)c(F)c1OC(F)(F)F [compound 451]	1%	0%	2%	0%						
CNC(=O)/C(=N/OC)c1cccc(C)c1CO/N=C(\C)c1ccccc1OC1CC1 [compound 329]					100%	53%	100%	73%		
CNC(=O)/C(=N/OC)c1cccc(C)c1CO/N=C(\C)c1ccccc1OC(F)F [compound 252]					50%	3%	87%	32%		
CO/C=C(/C(=O)OC)c1cccc(C)c1CO/N=C(\C)c1c(Cl)ccc(Cl)c1OC(F)(F)F [compound 444]	100%	47%	83%	53%						
CNC(=O)/C(=N/OC)c1cccc(C)c1CO/N=C(\C)c1cc(F)ccc1F [compound 131]					0%	0%	2%	0%	0%	0%
CO/N=C(/C(=O)OC)c1cccc(C)c1CO/N=C(\C)c1ccc(C)c(C(F)(F)F)c1 [compound 229]					27%	2%	77%	6%		
CNC(=O)/C(=N/OC)c1cccc(C)c1CO/N=C(\C)c1c(F)ccc(C(F)(F)F)c1NC [compound 233]					100%	57%	87%	27%		
CNC(=O)/C(=N/OC)c1cccc(C)c1CO/N=C(\C)c1ccc(OC)cc1C(F)(F)F [compound 324]					2%	1%	12%	0%		
CNC(=O)/C(=N/OC)c1cccc(C)c1CO/N=C(\C)c1ccc(F)cc1CC(F)(F)F [compound 394]	9%	3%	12%	2%						
CO/N=C(/C(=O)OC)c1cccc(C)c1CO/N=C(\C)c1cc(F)c(F)cc1C(F)(F)F [compound 409]	77%	40%	83%	73%						
CO/N=C(/C(=O)OC)c1cccc(C)c1CO/N=C(\C)c1ccc(Oc2ccc(Cl)cc2)cc1C(F)(F)F [compound 335]					77%	53%	80%	25%		
CNC(=O)/C(=N/OC)c1cccc(C)c1CO/N=C(\C)c1cc(C(F)(F)F)cc(F)c1NC [compound 238]					100%	53%	100%	77%		
CNC(=O)/C(=N/OC)c1cccc(C)c1CO/N=C(\C)c1ccc(C)cc1C(F)(F)F [compound 327]					23%	3%	48%	4%		
CNC(=O)/C(=N/OC)c1cccc(C)c1CO/N=C(\CC1CC1)c1cccc(C(F)(F)F)c1 [compound 234]					53%	18%	53%	15%		
